Reference: patent publication US20250186405A1, “Compound For Use In Treating Narcolepsy” (Alkermes, Inc., priority 2023, published 2025)
Values joined by “and” are separate entries in the source; they are usually repeats but may differ in a detail not shown here. Identical values can stand only once. Like-named read-outs stand apart in the source and are kept apart here.

Key:
[1] = test system: subjects with narcolepsy type-2 (NT2); assay: Part 5 NT2: Maintenance of Wakefulness Test (MWT) sleep latency; assay type: in vivo, human; conditions: for Change from Day −1 in Average Sleep Latency on the MWT, LSM / Change from Day −1 in Average Sleep Latency on the MWT, LSM difference vs placebo: NT2, N = 9; for Average Sleep Latency on the MWT, Change from Day −1, Mean (SD) / Average Sleep Latency on the MWT, Change from Day −1, Median / Average Sleep Latency on the MWT, Dosing Day, Mean (SD) / Average Sleep Latency on the MWT, Dosing Day, Median: NT2, n = 9; for LS mean difference vs placebo in change from baseline, average MWT sleep latency: 2-8 hours post-dose
Method: On Day −1, approximately 25 hours prior to study drug administration (on Day 1), baseline assessments for Maintenance of Wakefulness Test (MWT) began and were collected in a series of trials over approximately 10 hours.
At specified time points (Parts 5 and 6), MWT assessments were performed and took up to 40 minutes to complete. During the MWT trials, subjects were seated in a bed or reclining chair in a darkened room with their back and head supported such that their neck is not uncomfortably flexed or extended. Subjects were instructed to sit still and remain awake for as long as possible during each 40-minute trial. If the subject fell asleep during a trial, they were awakened, and the trial was terminated. […] Upon completion of the trial, the subject returned to a normal environment/ambiance and remained awake (and were awakened if they fall asleep) until the next trial.
Once Parts 5 and 6 were completed, the EEG data recorded during the MWT, as well as the technician notes, were transferred to the EEG vendor for further analysis. Technician notes were also maintained for transfer to Sponsor at the end of the study. A precise assessment of sleep latency was conducted by an experienced sleep scorer from the EEG vendor, and spectral analysis was performed on the EEG data recorded during MWT to assess absolute and relative powers in standard frequency bands (i.e., qEEG). All raw data and analysis results were transferred to the Sponsor.
For the changes from baseline in average sleep latency across the first 4 sessions of the MWT, descriptive statistics were provided by dose level. Mixed model with repeated measure (MMRM) for the 4-period crossover design were conducted with the change from baseline as a dependent variable, and the dose level and the period as fixed factors. The differences in the least square means between each Compound A dose level and the placebo (each Compound A dose level—the placebo), and the 2-sided CIs were provided.
Evaluation of Compound A effects on average sleep latency across 4 timepoints of MWT (2-, 4-, 6-, and 8-hours post-dose) has been conducted at each of the crossover periods (Days 1, 3, 5 and 7), testing placebo, and active dose levels of 5, 12, and 25 mg in the patients with NT2 compared to placebo. At pre-dose baseline on Day −1, MWT assessment was taken at similar times (2-, 4-, 6-, and 8-hours) as planned on dosing days assuming a dosing time of approximately 9 AM. Mean (SD) of baseline MWT average across the 4 time points on Day −1 was 14.31 (11.201), with high variability observed for NT2 subjects.

[2] = Part 2 MAD: plasma pharmacokinetics, once daily for 10 days; assay type: in vivo, human; conditions: for Cmax / AUC(0-t) / concentration at 8 h / Tmax / half-life / Vd/F: oral; for AUC(0-t): read-out: AUC0-24, ss; for concentration at 8 h: read-out: C8 (concentration at 8-hour postdose); for Vd/F: read-out: Vz/F
Method: Part 2 of the study is a MAD evaluation in healthy subjects consisting of 4 cohorts: Cohorts 1-4 received powder-in-capsule or matching placebo. Dose levels were as follows:
Blood samples (up to 5 mL per sample) were collected for PK analysis of Compound A and its metabolite(s). The actual time of sample collection was recorded. The PK samples of the subjects randomized to placebo treatment were not analyzed. Any remaining plasma PK samples were used to explore the presence of any additional metabolites and/or biomarkers.
Plasma and urine concentrations of Compound A and its metabolite(s) were measured using a validated high-performance liquid chromatography with tandem mass spectrometry.
The plasma PK parameters of Compound A and its metabolite(s) were determined from the plasma concentration-time profiles for all evaluable subjects. Actual sampling times, rather than scheduled sampling times, were used in all computations involving sampling times. The below lower limit of quantitation concentrations were set to zero prior to PK parameter estimation.
The PK population was used for summaries of plasma and urine Compound A and its metabolite(s) concentrations and for analyses, summaries, and listing of PK parameters. Accumulation ratio (Day 10/Day 1) for Cmax and AUC0-24 was estimated with 90% CIs using a linear fixed effects model on log-transformed parameters. Dose effect was assessed using a linear fixed effects model on log-transformed t1/2. Dose proportionality was assessed using a power model on Cmax and AUC0-24 on Day 1 and Day 10 separately. Within-subject and total standard deviations for log-transformed Cmax and AUC0-24 were estimated within a linear mixed effects framework.

[3] = human, plasma, 3 mg, Day 1, geometric mean
[4] = human, plasma, 3 mg, Day 10, geometric mean
[5] = human, plasma, 8 mg, Day 1, geometric mean
[6] = human, plasma, 8 mg, Day 10, geometric mean
[7] = human, plasma, 15 mg, Day 1, geometric mean
[8] = human, plasma, 15 mg, Day 10, geometric mean
[9] = human, plasma, 25 mg, Day 1, geometric mean
[10] = human, plasma, 25 mg, Day 10, geometric mean

## CS(=O)(=O)N[C@H]1CCCN2C(=O)COc3ccccc3C3CCC(CC3)OCC12 (stereo partly drawn) [Compound A, N-[(4S,4aR,7α,10α)-1,2,3,4,4a,5,7,8,9,10,16,17-dodecahydro-17-oxo-7,10-ethanopyrido[1,2-d][1,7,4]benzodioxaazacyclotridecin-4-yl]methanesulfonamide]
[1]; 5 mg
  Change from Day −1 in Average Sleep Latency on the MWT, LSM: 11.68 min
  Change from Day −1 in Average Sleep Latency on the MWT, LSM difference vs placebo: 11.60 min
  Average Sleep Latency on the MWT, Change from Day −1, Mean (SD): 11.65 (14.736) minutes
  Average Sleep Latency on the MWT, Change from Day −1, Median: 8.50 min
  Average Sleep Latency on the MWT, Dosing Day, Mean (SD): 25.95 (12.409) minutes
  Average Sleep Latency on the MWT, Dosing Day, Median: 26.63 min
[1]; 12 mg
  Change from Day −1 in Average Sleep Latency on the MWT, LSM: 18.63 min
  Change from Day −1 in Average Sleep Latency on the MWT, LSM difference vs placebo: 18.55 min
  Average Sleep Latency on the MWT, Change from Day −1, Mean (SD): 18.63 (10.892) minutes
  Average Sleep Latency on the MWT, Change from Day −1, Median: 19.50 min
  Average Sleep Latency on the MWT, Dosing Day, Mean (SD): 32.93 (9.836) minutes
  Average Sleep Latency on the MWT, Dosing Day, Median: 40.00 min
[1]; 25 mg
  Change from Day −1 in Average Sleep Latency on the MWT, LSM: 21.04 min
  Change from Day −1 in Average Sleep Latency on the MWT, LSM difference vs placebo: 20.96 min
  Average Sleep Latency on the MWT, Change from Day −1, Mean (SD): 21.14 (12.126) minutes
  Average Sleep Latency on the MWT, Change from Day −1, Median: 17.25 min
  Average Sleep Latency on the MWT, Dosing Day, Mean (SD): 35.44 (7.720) minutes
  Average Sleep Latency on the MWT, Dosing Day, Median: 40.00 min
[1]; NT2, 5 mg
  LS mean difference vs placebo in change from baseline, average MWT sleep latency: 11.60 min and 11.6 min and 12 min
[1]; NT2, 12 mg
  observed mean MWT score over 8-hour period post-dose: ≥ 30 min
  LS mean difference vs placebo in change from baseline, average MWT sleep latency: 18.55 min and 18.6 min and 19 min
[1]; NT2, 25 mg
  observed mean MWT score over 8-hour period post-dose: ≥ 30 min
  LS mean difference vs placebo in change from baseline, average MWT sleep latency: 20.96 min and 21.0 min and 21 min
[2]; 3 mg
  Accumulation ratio (Day 10/Day 1) AUC0-24: 1.36
  Accumulation ratio (Day 10/Day 1) Cmax: 1.68
[2]; 3 mg, Day 10, geometric mean
  CL/F: 62.0 L/h
  Ctrough: 0.495 ng/mL
[2]; 8 mg
  Accumulation ratio (Day 10/Day 1) AUC0-24: 1.36
  Accumulation ratio (Day 10/Day 1) Cmax: 1.38
[2]; 8 mg, Day 10, geometric mean
  CL/F: 55.7 L/h
  Ctrough: 2.07 ng/mL
[2]; 15 mg
  Accumulation ratio (Day 10/Day 1) AUC0-24: 1.23
  Accumulation ratio (Day 10/Day 1) Cmax: 1.15
[2]; 15 mg, Day 10, geometric mean
  CL/F: 84.4 L/h
  Ctrough: 2.06 ng/mL
[2]; 25 mg
  Accumulation ratio (Day 10/Day 1) AUC0-24: 1.02
  Accumulation ratio (Day 10/Day 1) Cmax: 1.32
[2]; 25 mg, Day 10, geometric mean
  CL/F: 108 L/h
  Ctrough: 4.51 ng/mL
[2]; [3]
  Cmax: 5.6 ng/mL
  AUC(0-t): 35.5 ng·h/mL
  concentration at 8 h: 1.21 ng/mL
[2]; human, plasma, 3 mg, Day 1, median, read-out: Tmax
  Tmax: 1.75 h
[2]; [4]
  Cmax: 9.38 ng/mL
  half-life: 9.63 h
  AUC(0-t): 48.4 ng·h/mL
  concentration at 8 h: 1.39 ng/mL
  Vd/F: 862 L
[2]; human, plasma, 3 mg, Day 10, median, read-out: Tmax
  Tmax: 1.5 h
[2]; [5]
  Cmax: 16 ng/mL
  AUC(0-t): 104 ng·h/mL
  concentration at 8 h: 3.89 ng/mL
[2]; human, plasma, 8 mg, Day 1, median, read-out: Tmax
  Tmax: 1.75 h
[2]; [6]
  Cmax: 22.1 ng/mL
  half-life: 7.66 h
  AUC(0-t): 141 ng·h/mL
  concentration at 8 h: 4.6 ng/mL
  Vd/F: 616 L
[2]; human, plasma, 8 mg, Day 10, median, read-out: Tmax
  Tmax: 1.75 h
[2]; [7]
  Cmax: 25.2 ng/mL
  concentration at 8 h: 3.41 ng/mL
[2]; human, plasma, 15 mg, Day 1, median, read-out: Tmax
  Tmax: 1.5 h
[2]; [8]
  Cmax: 28.9 ng/mL
  half-life: 14 h
  concentration at 8 h: 4.62 ng/mL
  Vd/F: 1700 L
[2]; human, plasma, 15 mg, Day 10, median, read-out: Tmax
  Tmax: 1.75 h
[2]; human, plasma, 25 mg, 3, 8, 15 and 25 mg, both Day 1 and Day 10 (range 1.0 to 6.0), read-out: median Tmax
  Tmax: 1.75 h
[2]; [9]
  Cmax: 28 ng/mL
  concentration at 8 h: 7.35 ng/mL
[2]; human, plasma, 25 mg, Day 1, median, read-out: Tmax
  Tmax: 1.25 h
[2]; [10]
  Cmax: 36.9 ng/mL
  half-life: 15.9 h
  concentration at 8 h: 7.39 ng/mL
  Vd/F: 2480 L
[2]; human, plasma, 25 mg, Day 10, median, read-out: Tmax
  Tmax: 1.5 h
[2]; human, plasma, po, Day 10, 3 to 25 mg, read-out: terminal half-life following multiple oral dosing, range
  half-life at 10 days: 8 to 16 h
[2]; once daily dosing, from half-life
  steady state expected to be achieved by: ≤ 4 days
